Reference: patent US12012390B2, “Flavone compounds for the treatment and prophylaxis of hepatitis B virus disease” (priority 2018, dated 2024)
pIC50: −log10 of the molar value. Like-named read-outs stand apart in the source and are kept apart here.

Experiments:
[1] = tested on: HBV in primary human hepatocytes (PHH); assay: Cryopreserved primary human hepatocytes (PHH) HBV infection assay; format: cell-based; details: Hepatitis B virus, Hepatocyte, 216 h, HBV-infected cryopreserved PHH, 9 days post-compound treatment, extracellular HBsAg by CLIA; read-out: HBsAg IC50
Description: This assay is used to confirm the anti-HBV effect of the compounds in HBV PHH infection assay. Cryopreserved PHH (BioreclamationIVT, Lot YJM) was thawed at 37° C. and gently transferred into pre-warmed InVitroGRO HT medium (BioreclamationIVT, Cat. S03317). The mixture was centrifuged at 70 relative centrifugal force (RCF) for 3 minutes at RT, and the supernatant was discarded. Pre-warmed InVitroGRO CP medium (BioreclamationIVT, Cat #S03316) was added to the cell pellet to gently re-suspend cells. The cells were seeded at the density of 5.8×10^4 cells per well to collagen I coated 96-well plate (Gibco, Cat. A1142803) with the InVitroGRO CP medium. All plates were incubated at 37° C. with 5% CO2 and 85% humidity.
At 20 hours after plating, the medium was changed to PHH culture medium (Dulbecco's Modified Eagle Medium (DMEM)/F12 (1:1) (Gibco, Cat. 11320-033), 10% fetal bovine serum (Gibco Cat. 10099141), 100 U/mL penicillin, 100 μg/mL streptomycin (Gibco, Cat. 151401-122), 5 ng/mL human epidermal growth factor (Invitrogen Cat. PHG0311L), 20 ng/mL dexamethasone (Sigma, Cat. D4902) and 250 ng/mL human recombinant insulin (Gibco, Cat. 12585-014)). And the cells were incubated at 37° C. with 5% CO2 and 85% humidity for 4 hours. The medium was then changed to pre-warmed PHH culture medium containing 4% polyethylene glycol (PEG) MW8000 (Sigma, Cat. P1458-50ML) and 1% DMSO (Sigma, Cat. D2650). 5.8×10^6 genomic equivalents of HBV were added into the medium.
At 24 hours post-infection, the cells were gently washed with PBS and refreshed with PHH culture medium supplemented with 1% DMSO, and 0.25 mg/mL Matrix gel (Corning, Cat. 356237) at 200 μL per well. All plates were immediately placed in at 37° C. CO2 incubator.
24 hours later, serial dilutions of compounds made with DMSO were further diluted with the same culture medium (PHH culture medium supplemented with 1% DMSO and 0.25 mg/mL Matrix gel as described above) before they were added to the cells to reach desired final compound concentrations and 1% DMSO concentration. The medium containing the compounds were refreshed every three days.
At 9 days post-compound treatment, extracellular HBsAg level were measured with Chemiluminescence Immuno Assay (CLIA) kit (Autobio, HBsAg Quantitative CLIA). Extracellular HBV DNA was extracted by MagNA Pure 96 system (Roche) and then determined by quantitative PCR with the following primers and probe: […]
HBsAg IC50 and HBV DNA IC50 values were derived from the dose-response curve using 4 parameter logistic curve fit method. The compounds of formula (I) have HBsAg IC50<20 μM, particularly <1 μM; and HBV DNA IC50<50 μM. Test results of the compounds of this invention as well as the reference compounds in Cryopreserved PHH assay are given in Table 2 and Table 3.

[2] = tested on: HBeAg level (surrogate marker for cccDNA) in HepDES19 cells; assay: Engineered HepDES19 primary screen assay (HBeAg as surrogate marker for cccDNA); format: cell-based, HBV
Text: The assay was employed to screen for novel cccDNA inhibitors. HepDES19 is a cccDNA-producing cell line. In this cell line, HBeAg in the cell culture supernatant as surrogate marker, as HBeAg production depends on cccDNA level and activity. HepDES19 is an engineered cell line which contains a 1.1 unit length HBV genome, and pgRNA transcription from the transgene is controlled by Tetracycline (Tet). In the absence of Tet, pgRNA transcription will be induced, but HBV e antigen (HBeAg) could not be produced from this pgRNA due to very short leader sequence before the HBeAg start codon and the start codon is disrupted. Only after cccDNA is formed, the missing leader sequence and start codon mutation would be restored from the 3′-terminal redundancy of pgRNA, and then HBeAg could be synthesized. Therefore, HBeAg could be used as a surrogate marker for cccDNA (Zhou, T. et al., Antiviral Res. (2006), 72(2), 116-124; Guo, H. et al., J. Virol. (2007), 81(22), 12472-12484).
HepDES19 cells were seeded at 2×10^6 cells per T150 flask and cultured with the culture medium (Dulbecco's Modified Eagle Medium: Nutrient Mixture F-12 [DMEM-F12, Gibco Cat. 11320-82], 10% Fetal Bovine Serum [FBS, Clontech Cat. 631101], 0.1 mM Non-Essential Amino Acids Solution [NEAA, Gibco Cat. 11140-050], 50 μg/mL Penicillin-Streptomycin [PS, Invitrogen Cat. 15140-163], 500 μg/mL Geneticin [G418, Invitrogen Cat. 10131-027]) containing 3 μg/mL Tet (Sigma, Cat. 87128) for 5 days. Cells were then seeded at 4×10^6 cells per T150 in the same culture medium as described above in the absence of Tet for 8 days. Cells were then harvested and frozen at density of 2×10^6 cells per mL. For compound testing, the frozen cells were thawed and seeded into 96-well plates at a density of 6×10^4 cells per well. At 24 hrs after seeding, half log serial dilutions of compounds made with Dimethyl sulfoxide (DMSO, Sigma, Cat. D2650) were further diluted with the same culture medium as described above before they were added to the cells to reach desired final compound concentrations and 1% DMSO concentration. Plates were then incubated at 37° C. for another 5 days before measurement of HBeAg level and cell viability. Intracellular HBeAg level were measured with enzyme-linked immunosorbent assay (ELISA) kit (Shanghai Kehua Diagnostic Medical Products Co., Ltd). Cell viability was assessed using Cell Counting Kit-8 (Donjindo, Cat. CK04-20). IC50 values were derived from the dose-response curve using 4 parameter logistic curve fit method.
The compounds of the present invention were tested for their capacity to inhibit extracellular HBeAg level as described herein.

[3] = Hepatitis B virus, HepDES19, 120 h, read-out: IC50 (HBeAg) in HepDES19 primary screen assay, HepDES19 cells, 5 days incubation with compound, HBeAg by ELISA

`O=C(O)COC1CC(COc2ccc(-c3cc(=O)c4cccc(Cl)c4o3)cc2)C1` (stereo not drawn) [Example 8, 2-[3-[[4-(8-chloro-4-oxo-chromen-2-yl)phenoxy]methyl]cyclobutoxy]acetic acid] gave a pIC50 [1] of 6.92 and a pIC50 [2, 3] of 5.87.

`N#Cc1ccc2c(=O)cc(-c3ccc(OCCOC4CC(C(=O)O)C4)cc3)oc2c1Cl` (single isomer, unassigned) [Example 23-B, 3-[2-[4-(8-chloro-7-cyano-4-oxo-chromen-2-yl)phenoxy]ethoxy]cyclobutanecarboxylic acid] was tested, and the pIC50 [1] was 5.16.

With `O=c1cc(-c2ccc(OCCO[C@H]3C[C@@H](C(=O)O)C3)c(Cl)c2)oc2c(Cl)cccc12` [Example 43, Cis-3-[2-[2-chloro-4-(8-chloro-4-oxo-chromen-2-yl)phenoxy]ethoxy]cyclobutanecarboxylic acid] the pIC50 [1] was 6.66 and the pIC50 [2, 3] was 6.60.

`O=c1cc(-c2ccc(OCCO[C@H]3C[C@@H](C(=O)O)C3)cc2)oc2c(Br)cccc12` [Example 33, Cis-3-[2-[4-(8-bromo-4-oxo-chromen-2-yl)phenoxy]ethoxy]cyclobutanecarboxylic acid] showed a pIC50 [1] of 6.17 and a pIC50 [2, 3] of 6.51.

With `O=C(O)C1CC(OCCCOc2ccc(-c3cc(=O)c4cccc(Cl)c4o3)cc2)C1` (stereo not drawn) [Example 13, 3-[3-[4-(8-chloro-4-oxo-chromen-2-yl)phenoxy]propoxy]cyclobutanecarboxylic acid] the pIC50 [1] was 5.90 and the pIC50 [2, 3] was 6.16.

Work on `O=C(O)C1CC(OCCOc2ccc(-c3cc(=O)c4ccc(C5CC5)c(Cl)c4o3)cc2)C1` (single isomer, unassigned) [Example 70-B, 3-[2-[4-(8-chloro-7-cyclopropyl-4-oxo-chromen-2-yl)phenoxy]ethoxy]cyclobutanecarboxylic acid] yielded a pIC50 [1] of 5.32 and a pIC50 ([2]; read-out: IC50 (HBeAg) in HepDES19 primary screen assay, HepDES19 cells, 5 days incubation with compound, HBeAg by ELISA) of 5.67.

`O=C(O)C1CC(OCCOc2ccc(-c3cc(=O)c4ccc(F)c(Cl)c4o3)cc2)C1` (stereo not drawn) [Example 15, 3-[2-[4-(8-chloro-7-fluoro-4-oxo-chromen-2-yl)phenoxy]ethoxy]cyclobutanecarboxylic acid] showed a pIC50 [1] of 6.55 and a pIC50 [2, 3] of 4.99.

For `O=c1cc(-c2ccc(OCCO[C@H]3C[C@@H](C(=O)O)C3)c(Br)c2)oc2c(Cl)cccc12` [Example 44, Cis-3-[2-[2-bromo-4-(8-chloro-4-oxo-chromen-2-yl)phenoxy]ethoxy]cyclobutanecarboxylic acid], the pIC50 [1] was 7.40 and the pIC50 [2, 3] was 6.24.

`O=c1c(O)c(-c2ccc(OCCO[C@H]3C[C@@H](C(=O)O)C3)cc2)oc2c(Cl)cccc12` [Example 55, Cis-3-[2-[4-(8-chloro-3-hydroxy-4-oxo-chromen-2-yl)phenoxy]ethoxy]cyclobutanecarboxylic acid] was tested, and the pIC50 [1] was 5.02 and the pIC50 [2, 3] was 6.92.

Work on `O=c1cc(-c2ccc(OCCO[C@H]3C[C@@H](C(=O)O)C3)cc2)oc2c(Cl)ccc(Br)c12` [Example 28, Cis-3-[2-[4-(5-bromo-8-chloro-4-oxo-chromen-2-yl)phenoxy]ethoxy]cyclobutanecarboxylic acid] yielded a pIC50 [1] of 5.72 and a pIC50 [2, 3] of 5.55.

`CCOc1cc(OCCOC2CC(C(=O)O)C2)ccc1-c1cc(=O)c2cccc(Cl)c2o1` (stereo not drawn) [Example 51, 3-[2-[4-(8-chloro-4-oxo-chromen-2-yl)-3-ethoxy-phenoxy]ethoxy]cyclobutanecarboxylic acid] gave a pIC50 [1] of 6.03 and a pIC50 [2, 3] of 6.07.

With `COc1ccc(-c2cc(=O)c3cc(OC)ccc3o2)cc1` [Example F-1, 6,4′-dimethoxyflavone, reference compound] the pIC50 [1] was 4.21 and the pIC50 [2, 3] was less than 4.30.

For `COc1ccc2c(=O)cc(-c3ccc(OCCOC4CC(C(=O)O)C4)cc3)oc2c1Cl` (stereo not drawn) [Example 19, 3-[2-[4-(8-chloro-7-methoxy-4-oxo-chromen-2-yl)phenoxy]ethoxy]cyclobutanecarboxylic acid], the pIC50 [1] was 5.82 and the pIC50 [2, 3] was 4.65.

`CCOC(=O)C1CC(OCCOc2ccc(-c3cc(=O)c4cccc(Cl)c4o3)cc2)C1` (stereo not drawn) [Example 2, Ethyl 3-[2-[4-(8-chloro-4-oxo-chromen-2-yl)phenoxy]ethoxy]cyclobutanecarboxylate] gave a pIC50 [1] of 6.72 and a pIC50 [2, 3] of 5.61.

`N#Cc1cc(-c2cc(=O)c3cccc(Cl)c3o2)ccc1OCCOC1CC(C(=O)O)C1` (stereo not drawn) [Example 46, 3-[2-[4-(8-chloro-4-oxo-chromen-2-yl)-2-cyano-phenoxy]ethoxy]cyclobutanecarboxylic acid] showed a pIC50 [1] of 6.89 and a pIC50 [2, 3] of 4.80.

For `O=C(O)CCOCCOc1ccc(-c2cc(=O)c3cccc(Cl)c3o2)cc1` [Example 10, 3-[2-[4-(8-chloro-4-oxo-chromen-2-yl)phenoxy]ethoxy]propanoic acid], the pIC50 [1] was 5.57 and the pIC50 [2, 3] was 6.10.

With `O=c1cc(-c2ccc(OCCO[C@H]3C[C@@H](C(=O)O)C3)c(C3CC3)c2)oc2c(Cl)cccc12` [Example 45, Cis-3-[2-[4-(8-chloro-4-oxo-chromen-2-yl)-2-cyclopropyl-phenoxy]ethoxy]cyclobutanecarboxylic acid] the pIC50 [1] was 6.28 and the pIC50 [2, 3] was 4.88.

`O=C(O)C1CC(OCCOc2ccc(-c3cc(=O)c4cc(C(F)(F)F)cc(Cl)c4o3)cc2)C1` (single isomer, unassigned) [Example 66-B, 3-[2-[4-[8-chloro-4-oxo-6-(trifluoromethyl)chromen-2-yl]phenoxy]ethoxy]cyclobutanecarboxylic acid] showed a pIC50 [1] of 5.32 and a pIC50 [2, 3] of 4.88.

For `O=c1cc(-c2cnc(OCCO[C@H]3C[C@@H](C(=O)O)C3)cn2)oc2c(Cl)cccc12` [Example 39, Cis-3-[2-[5-(8-chloro-4-oxo-chromen-2-yl)pyrazin-2-yl]oxyethoxy]cyclobutanecarboxylic acid], the pIC50 [1] was 5.24 and the pIC50 [2, 3] was 5.05.

For `COc1ccc(-c2cc(=O)c3ccccc3o2)cc1` [Example F-2, 4′-methoxyflavone, reference compound], the pIC50 [1] was 4.33 and the pIC50 [2, 3] was 4.79.
